Test results as given in US12594293B2, “Use of 6-thio-dG to treat therapy-resistant telomerasepositive pediatric brain tumors” (The Board of Regents of The University of Texas System, priority 2018, dated 2026).
“Also recorded” adds a separate entry of the source.

How the values were obtained:
HeLa = test: Cell growth assay (viable cell count, trypan blue exclusion); type: cell-based; conditions: Homo sapiens, 168 h, 6-thio-dG treatment for 7 days
Procedure: (§1) Cell growth and sphere formation assay. After dissociating primary neurospheres by TrypLE express (Gibco), single cells were seeded in respective growth media in 6-well plates and were incubated for one week at varying concentrations (0.5 to 10 μM) of 6-thio-dG or DMSO. Fresh culture media were added every three days. Viable cell numbers were determined by trypan blue exclusion method. For sphere formation assay, MB004 single cells were seeded in limited dilution (10 cells/well in 96-well plate) and treated with DMSO or 6-thio-dG. Sphere formation was monitored by microscopy.

R0315-GBM = test: as above; type: cell-based; conditions: Homo sapiens, 168 h, 6-thio-dG treatment for 7 days
Procedure: as §1

CCHMC-DIPG-1 = test: as above; type: cell-based; conditions: Homo sapiens, 168 h, 6-thio-dG treatment for 7 days
Procedure: as §1

SU-DIPG-VI = test: as above; type: cell-based; conditions: Homo sapiens, 168 h, 6-thio-dG treatment for 7 days
Procedure: as §1

MB004 cells = test: Sphere formation assay; type: cell-based, human; conditions: 3 μM, day 7
Procedure: as §1

[1] = test system: CCHMC-DIPG-1 orthotopic tumors; test: Orthotopic patient-derived DIPG xenograft (CCHMC-DIPG-1 in pons); type: in vivo, mouse
Procedure: Mouse subcutaneous and orthotopic xenograft. Athymic Ncr-nu/nu female mice (6-7 weeks old) were subcutaneously injected with 10,000 MB004 cells. Mice were weighed and distributed in two groups (control and 6-thio-dG). After tumor-establishment (day 23-24 post-implantation) with an average volume of 100-200 mm3, mice were injected intraperitoneally (i.p) every 2 days with 6-thio-dG (2.5 mg/kg) or DMSO-PBS (vehicle) for 3-4 weeks until euthanization. Tumors were measured by slide calipers taking two longest tumor-diameters (length and width) perpendicular to each other and volumes were calculated by using the formula: (π/6)×d3, where d=mean diameter. For orthotopic xenograft, CCHMC-DIPG-1 luciferase-positive cells (10,000) were injected in the brain of NRG (NOD.Cg-Rag1tm1Mom Il2rgtm1Wjl/SzJ) mice. Briefly, mice were injected stereotactically with 2 μl medium containing 10,000 luciferase-positive cells. The coordinates for injection were 0.8-1 mm posterior to lambda suture and 3.5 mm deep, corresponding to the pons location in the brain. Tumors were visualized by luminescence using IVIS Spectrum CT in vivo imaging system (PerkinElmer). All animal procedures were approved by the Institutional Animal Care and Use Committee (IACUC) (protocol #IACUC2015-0066, CCHMC).
Immunohistochemistry. Formalin-fixed paraffin-embedded (FFPE) sections were deparaffinized in xylene followed by rehydration through a graded ethanol concentration series. Heat-induced antigen retrieval was performed by steaming slides for 20 minutes in 10 mM Citrate buffer (pH 6.0). […] Slides were washed with TBST (×3) and were treated with biotinylated anti-rabbit secondary antibody (1:500) and signal-amplified using ABC Kit (Vector Laboratories). Signal was visualized with DAB (Vector Laboratories) and counterstained with Harris Hematoxylin (Sigma). H & E staining was performed using hematoxylin-1 and eosin-Y (Thermo Scientific). Tissues were mounted with Permount (Fisher Scientific) and imaged by Nikon eclipse 80i microscope.
Tissue TIF assay. […]

U2OS cells = test: Cell growth and viability after drug removal; type: cell-based, human; conditions: 3 mM 6-thio-dG for 3 days followed by 10-days post-drug removal (FIG. 10C)
HFF+hTERT cells = test: Cell cycle analysis (PI flow cytometry); type: cell-based, human
Procedure: (§2) Cell cycle analysis. Following treatment with 6-thio-dG or DMSO, cells were collected in PBS, fixed with ice-cold 70% ethanol and were kept in −20° C. for at least an hour. Cells were then washed and stained with propidium iodide (PI) solution containing 25 μg/mL PI (Sigma), and 100 μg/mL Ribonuclease-A (Sigma) for 30 minutes in the dark. Flow cytometry was performed on BD FACS Canto II and cells were analyzed using FlowJo v.10 (FlowJo, USA) software.

HFF cells = test: Cell cycle analysis (PI flow cytometry); type: cell-based, human; conditions: 3 μM, three days
Procedure: as §2

[2] = test system: telomerase-positive cells including brain tumor cells; test: Cell growth assay, panel of telomerase-positive cells; type: cell-based, human
Procedure: as §1

HFF = test: Cell growth assay (viable cell count, trypan blue exclusion); type: cell-based, human
Procedure: as §1

D-425 = test: as above; type: cell-based, human
Procedure: as §1

D-458 = test: as above; type: cell-based, human
Procedure: as §1

SaOS2 = test: as above; type: cell-based, human
Procedure: as §1

MB004 = test: as above; type: cell-based, human
Procedure: as §1

## Nc1nc2c(ncn2[C@H]2C[C@H](O)[C@@H](CO)O2)c(=S)[nH]1 [6-thio-dG, 6-thio-2′-deoxyguanosine]
HeLa
  IC50: 143 nM
R0315-GBM
  IC50: 1250 nM
CCHMC-DIPG-1
  IC50: 655 nM
SU-DIPG-VI
  IC50: 772 nM
MB004 cells
  sphere formation ability: total abolition of sphere formation ability
[1]; i.p., 7-8 days (4-5 doses in total), vs untreated tumors
  intratumoral TIFs and genomic DNA damage: increase in the number of cells with genomic DNA damage and TIFs
[1]; intraperitoneal injection
  effect on normal mouse brain: no obvious effect on normal brain tissue; also recorded: did not observe any adverse effects
  penetration to brain tumor site: reached the tumor in the pons; also recorded: crossed the blood-brain-barrier
U2OS cells
  cell death / viability: predominantly did not die
HFF+hTERT cells; 3 μM 3 days, then drug removed
  cell cycle profile after drug removal: partially reverted to that of the vehicle control
HFF+hTERT cells; 3 μM, three days
  cell cycle progression: caused G2/M arrest
HFF cells
  G2/M arrest effect: negligible
[2]; 0.5 to 10 μM every three days for one week
  cell growth: inhibited cell growth in a dose-dependent manner
[2]; Homo sapiens, all telomerase-positive cells including brain tumor cells (Table S2)
  IC50: 140 to 1450 nM
HFF; Homo sapiens, 168 h, 6-thio-dG treatment for 7 days, HFF (telomerase-negative)
  IC50: 7900 nM
HFF; up to 3 μM, one week
  cell growth: minor to no effect
D-425; 0.5-10 μM for one week, cells at diagnosis
  cell growth: effectively inhibited cell growth
D-425; Homo sapiens, 168 h, 6-thio-dG treatment for 7 days, D-425 (primary)
  IC50: 1380 nM
D-458; 0.5-10 μM for one week, cells at recurrence
  cell growth: effectively inhibited cell growth
D-458; Homo sapiens, 168 h, 6-thio-dG treatment for 7 days, D-458 (recurrence)
  IC50: 1450 nM
SaOS2; Homo sapiens, SAOS-2, 168 h, 6-thio-dG treatment for 7 days, SaOS2 (telomerase-negative, ALT-positive)
  IC50: 7580 nM
SaOS2; up to 3 μM, one week
  cell growth: minor to no effect
MB004; 3 μM 2 days, then 3 days continuous or discontinuous treatment
  relative growth: robust growth inhibition
MB004; Homo sapiens, 168 h, 6-thio-dG treatment for 7 days, MB004
  IC50: 436 nM
